# Laboratory results from patent US7977322B2 (Vertex Pharmaceuticals Incorporated, priority 2004, dated 2011).
# Biological target: T1, ΔF508-CFTR (Homo sapiens, UniProt P13569, DEL508-508)
# T1 construct: expressed in transfected cells
# Test: Membrane potential optical (FRET/VIPR) assay, identification of correction compounds
# Format: cell-based
# Conditions: Table 3, assay not given; for Emax: read-out: % Activity / % Efficacy (relative efficacy)
# Summary of the method: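 NIH3T3 mouse fibroblasts stably expressing ΔF508-CFTR were exposed to compound for 16 h at 37° C in serum-free medium, then loaded with DiSBAC2(3)/CC2-DMPE. After addition of 10 μM forskolin plus 20 μM genistein in Cl⁻-free gluconate bath (pH 7.4), depolarization from Cl⁻ efflux was read by FRET (VIPR II).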
# T1 sequence (P13569 with tags, fused parts or gaps DEL508-508): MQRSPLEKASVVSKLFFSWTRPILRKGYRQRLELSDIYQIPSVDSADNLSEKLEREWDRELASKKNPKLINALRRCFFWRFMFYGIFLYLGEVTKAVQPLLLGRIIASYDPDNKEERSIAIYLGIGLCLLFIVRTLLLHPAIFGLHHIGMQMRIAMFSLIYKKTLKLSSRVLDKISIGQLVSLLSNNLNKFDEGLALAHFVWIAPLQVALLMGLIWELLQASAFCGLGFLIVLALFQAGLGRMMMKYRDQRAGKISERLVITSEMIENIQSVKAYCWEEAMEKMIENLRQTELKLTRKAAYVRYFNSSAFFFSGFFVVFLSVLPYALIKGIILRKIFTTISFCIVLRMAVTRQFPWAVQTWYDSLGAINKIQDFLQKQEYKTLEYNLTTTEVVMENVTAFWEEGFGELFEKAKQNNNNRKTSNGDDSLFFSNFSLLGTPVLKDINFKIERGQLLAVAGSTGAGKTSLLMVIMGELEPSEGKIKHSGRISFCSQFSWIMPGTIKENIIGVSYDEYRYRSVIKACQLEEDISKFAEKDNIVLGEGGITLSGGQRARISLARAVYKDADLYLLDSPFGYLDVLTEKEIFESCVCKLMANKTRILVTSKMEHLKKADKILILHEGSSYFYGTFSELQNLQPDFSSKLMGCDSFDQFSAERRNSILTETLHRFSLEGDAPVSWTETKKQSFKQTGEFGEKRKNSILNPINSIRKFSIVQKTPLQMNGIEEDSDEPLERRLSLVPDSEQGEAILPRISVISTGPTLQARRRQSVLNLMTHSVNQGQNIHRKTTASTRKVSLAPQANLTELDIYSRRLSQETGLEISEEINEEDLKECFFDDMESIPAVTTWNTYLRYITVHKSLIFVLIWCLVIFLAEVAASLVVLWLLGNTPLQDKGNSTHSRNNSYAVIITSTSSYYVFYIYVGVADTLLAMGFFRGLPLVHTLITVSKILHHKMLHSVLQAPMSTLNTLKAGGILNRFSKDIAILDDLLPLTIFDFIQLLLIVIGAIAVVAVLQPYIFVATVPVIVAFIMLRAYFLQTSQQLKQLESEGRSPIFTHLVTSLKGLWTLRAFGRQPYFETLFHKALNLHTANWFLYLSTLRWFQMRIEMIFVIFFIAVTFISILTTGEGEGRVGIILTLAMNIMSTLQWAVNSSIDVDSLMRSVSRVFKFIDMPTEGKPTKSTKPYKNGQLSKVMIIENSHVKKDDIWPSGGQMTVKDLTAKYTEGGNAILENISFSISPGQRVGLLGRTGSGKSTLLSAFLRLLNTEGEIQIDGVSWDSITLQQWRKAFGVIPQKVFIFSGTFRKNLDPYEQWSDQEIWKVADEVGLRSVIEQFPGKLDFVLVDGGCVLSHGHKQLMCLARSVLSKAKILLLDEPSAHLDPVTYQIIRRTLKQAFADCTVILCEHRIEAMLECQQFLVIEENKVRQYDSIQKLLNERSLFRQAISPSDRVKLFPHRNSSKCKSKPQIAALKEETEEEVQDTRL
Structure (SMILES),% Activity / % Efficacy (relative efficacy),EC50,Emax
COC(c1cnc(NC(=O)C2(c3ccc4c(c3)OCO4)CC2)s1)c1ccccc1Cl (stereo not shown) [Example 260],+++ (“+++” means>100%),< 10 µM,
CC(C)OC(c1cnc(NC(=O)C2(c3ccc4c(c3)OCO4)CC2)s1)c1ccccc1Cl (stereo not shown) [Example 261],+++ (“+++” means>100%),< 10 µM,
COc1ccc(C2(C(=O)Nc3ncc(Cc4ccncc4Cl)s3)CC2)cc1 [Example 262],+++ (“+++” means>100%),< 10 µM,
COc1ccc(C2(C(=O)Nc3ncc(Cc4ncccc4OC)s3)CC2)cc1 [Example 263],+++ (“+++” means>100%),< 10 µM,
COc1ccc(C2(C(=O)Nc3ncc(Cc4ccc(F)cc4F)s3)CC2)cc1 [Example 264],+++ (“+++” means>100%),< 10 µM,
O=C(Nc1ncc(Cc2ccncc2Cl)s1)C1(c2ccc3c(c2)OCO3)CC1 [Example 265],+++ (“+++” means>100%),< 10 µM,
COc1cccnc1Cc1cnc(NC(=O)C2(c3ccc4c(c3)OCO4)CC2)s1 [Example 266],+++ (“+++” means>100%),< 10 µM,
O=C(Nc1cnc(Cc2ccccc2Cl)s1)C1(c2ccc3c(c2)OCO3)CC1 [Example 267],,< 10 µM,> 100%
COc1ccc(C2(C(=O)Nc3cnc(Cc4ccccc4Cl)s3)CC2)cc1 [Example 270],++ (“++” means between 25% to 100%),< 10 µM,
COCCOC(c1cnc(NC(=O)C2(c3ccc4c(c3)OCO4)CC2)s1)c1ccccc1Cl (stereo not shown) [Example 273],,< 10 µM,> 100%
O=C(Nc1ncc(C(OCCCCO)c2ccccc2Cl)s1)C1(c2ccc3c(c2)OCO3)CC1 (stereo not shown) [Example 275],+ (“+” means<25%),< 10 µM,
CCN(C)CCOC(c1cnc(NC(=O)C2(c3ccc4c(c3)OCO4)CC2)s1)c1ccccc1Cl (stereo not shown) [Example 276],++ (“++” means between 25% to 100%),< 10 µM,
O=C(Nc1ncc(C(OCCCCN2CCC(O)CC2)c2ccccc2Cl)s1)C1(c2ccc3c(c2)OCO3)CC1 (stereo not shown) [Example 279],+++ (“+++” means>100%),< 10 µM,
COc1ccc(C2(C(=O)Nc3ncc(Cc4ccccc4C)s3)CC2)cc1 [Example 280],+++ (“+++” means>100%),< 10 µM,
Cc1ccccc1Cc1cnc(NC(=O)C2(c3ccc4c(c3)OCO4)CC2)s1 [Example 281],+++ (“+++” means>100%),< 10 µM,
COc1ccc(C2(C(=O)Nc3ncc(Cc4ccc(F)cc4C)s3)CC2)cc1 [Example 282],++ (“++” means between 25% to 100%),< 10 µM,
Cc1cc(F)ccc1Cc1cnc(NC(=O)C2(c3ccc4c(c3)OCO4)CC2)s1 [Example 283],++ (“++” means between 25% to 100%),< 10 µM,
O=C(Nc1nn(-c2ccccc2)cc1-c1cccs1)C1(c2ccc3c(c2)OCO3)CC1 [Example 286],,10 to 25 µM,25 to 100%
Cn1nc(-c2ccc(Cl)c(Cl)c2)cc1NC(=O)C1(c2ccc3c(c2)OCO3)CC1 [Example 287],,< 10 µM,> 100%
Cc1csc(NC(=O)C2(c3ccc4c(c3)OCO4)CC2)c1C(N)=O [Example 289],,< 10 µM,25 to 100%
CC(C)(C)c1cc(NC(=O)C2(c3ccc4c(c3)OCO4)CC2)c(C(N)=O)s1 [Example 290],,< 10 µM,25 to 100%

Structure (SMILES),% Activity / % Efficacy (relative efficacy),EC50,Emax
Cc1nn(-c2ccccc2)c(NC(=O)C2(c3ccc4c(c3)OCO4)CC2)c1-c1ccccc1 [Example 291],,10 to 25 µM,25 to 100%
COc1nonc1NC(=O)C1(c2ccc3c(c2)OCO3)CC1 [Example 292],,10 to 25 µM,25 to 100%
O=C(Nc1nnc(-c2ccccc2)s1)C1(c2ccc3c(c2)OCO3)CC1 [Example 293],,10 to 25 µM,25 to 100%
CC1CCc2c(sc(NC(=O)C3(c4ccc5c(c4)OCO5)CC3)c2C#N)C1 (stereo not shown) [Example 296],,< 10 µM,> 100%
Cc1cc(NC(=O)C2(c3ccc4c(c3)OCO4)CC2)n(Cc2ccccc2)n1 [Example 297],,10 to 25 µM,25 to 100%
O=C(Nc1ncc(-c2ccncc2)s1)C1(c2ccc3c(c2)OCO3)CC1 [Example 299],,10 to 25 µM,25 to 100%
CCC(c1ccccc1)c1nnc(NC(=O)C2(c3ccc4c(c3)OCO4)CC2)s1 (stereo not shown) [Example 301],,< 10 µM,> 100%
Cn1nnc2cc(C3(C(=O)Nc4ncc(Cc5ccccc5Cl)s4)CC3)ccc21 [Example 304],,< 10 µM,> 100%
O=C(Nc1ncc(Cc2ccccc2Cl)s1)C1(c2cccc(F)c2)CCCCC1 [Example 305],,< 10 µM,> 100%
O=C(Nc1ncc(Cc2ccccc2Cl)s1)C1(c2ccccc2F)CCCCC1 [Example 306],,< 10 µM,> 100%
O=C(Nc1ncc(Cc2ccccc2Cl)s1)C1(c2ccc(-n3cncn3)cc2)CC1 [Example 307],,< 10 µM,> 100%
CS(=O)(=O)Nc1cccc(C2(C(=O)Nc3ncc(Cc4ccccc4Cl)s3)CC2)c1 [Example 308],,< 10 µM,25 to 100%
CS(=O)(=O)c1ccc(C2(C(=O)Nc3ncc(Cc4ccccc4Cl)s3)CC2)cc1 [Example 309],,< 10 µM,25 to 100%
O=C(Nc1ncc(C(c2ccccc2Cl)N2CC[C@H](O)C2)s1)C1(c2ccc3c(c2)OCO3)CC1 (stereo partly shown) [Example 310],,< 10 µM,> 100%
O=C(Nc1ncc(C(c2ccccc2Cl)N2CCC(O)C2)s1)C1(c2ccc3c(c2)OCO3)CC1 (stereo not shown) [Example 311],,< 10 µM,> 100%
CN(C)CC(=O)Nc1ccc(C2(C(=O)Nc3ncc(Cc4ccccc4Cl)s3)CC2)cc1 [Example 312],,< 10 µM,25 to 100%
O=C(Nc1ncc(Cc2ccccc2Cl)s1)C1(c2ccc(N3CCOCC3)cc2)CC1 [Example 313],,10 to 25 µM,25 to 100%
CN1CCN(c2cccc(C3(C(=O)Nc4ncc(Cc5ccccc5Cl)s4)CC3)c2)CC1 [Example 314],,< 10 µM,25 to 100%
O=C(Nc1ncc(Cc2ccccc2Cl)s1)C1(c2cccc(N3CCOCC3)c2)CC1 [Example 315],,< 10 µM,25 to 100%
O=C(Nc1ncc(Cc2ccccc2Cl)s1)C1(c2cccc(O)c2)CC1 [Example 316],,< 10 µM,25 to 100%
O=C(Nc1ncc(Cc2ccccc2Cl)s1)C1(c2ccc(O)cc2)CC1 [Example 317],,< 10 µM,25 to 100%

Structure (SMILES),% Activity / % Efficacy (relative efficacy),EC50,Emax
O=C(Nc1ncc(CN2CC[C@@H](O)C2)s1)C1(c2ccc3c(c2)OCO3)CC1 [Example 319],,10 to 25 µM,25 to 100%
O=C(Nc1ncc(CN2CC[C@H](O)C2)s1)C1(c2ccc3c(c2)OCO3)CC1 [Example 320],,10 to 25 µM,> 100%
CC(=O)O[C@@H]1CCN(C(c2cnc(NC(=O)C3(c4ccc5c(c4)OCO5)CC3)s2)c2ccccc2Cl)C1 (stereo partly shown) [Example 321],,< 10 µM,> 100%
O=C(Nc1ncc([C@@H](O)c2ccccc2Cl)s1)C1(c2ccc3c(c2)OCO3)CC1 [Example 322],,< 10 µM,> 100%
O=C(Nc1ncc([C@H](O)c2ccccc2Cl)s1)C1(c2ccc3c(c2)OCO3)CC1 [Example 323],,< 10 µM,> 100%
COCC1CCCN1C(c1ccc(Cl)cc1)c1cnc(NC(=O)C2(c3ccc4c(c3)OCO4)CC2)s1 (stereo not shown) [Example 331],,< 10 µM,> 100%
O=C(Nc1ncc(C(c2ccc(Cl)cc2)N2CC[C@@H](O)C2)s1)C1(c2ccc3c(c2)OCO3)CC1 (stereo partly shown) [Example 335],,< 10 µM,> 100%
O=C(Nc1ncc(C(c2cccc(Cl)c2)N2CC[C@@H](O)C2)s1)C1(c2ccc3c(c2)OCO3)CC1 (stereo partly shown) [Example 343],,< 10 µM,> 100%
COc1cccc(C(c2cnc(NC(=O)C3(c4ccc5c(c4)OCO5)CC3)s2)N2CCCCC2)c1 (stereo not shown) [Example 344],,< 10 µM,25 to 100%
COC[C@@H]1CCCN1C(c1cccc(OC)c1)c1cnc(NC(=O)C2(c3ccc4c(c3)OCO4)CC2)s1 (stereo partly shown) [Example 345],,< 10 µM,25 to 100%
COc1ccccc1C(c1cnc(NC(=O)C2(c3ccc4c(c3)OCO4)CC2)s1)N1CC[C@@H](O)C1 (stereo partly shown) [Example 346],,10 to 25 µM,> 100%
COC[C@@H]1CCCN1C(c1ccccc1)c1cnc(NC(=O)C2(c3ccc4c(c3)OCO4)CC2)s1 (stereo partly shown) [Example 347],,10 to 25 µM,> 100%
COc1ccccc1C(c1cnc(NC(=O)C2(c3ccc4c(c3)OCO4)CC2)s1)N1CCC(O)CC1 (stereo not shown) [Example 348],,10 to 25 µM,> 100%
COc1ccccc1C(c1cnc(NC(=O)C2(c3ccc4c(c3)OCO4)CC2)s1)N1CCCCC1 (stereo not shown) [Example 349],,< 10 µM,> 100%
COc1ccc(C(c2cnc(NC(=O)C3(c4ccc5c(c4)OCO5)CC3)s2)N(C)C)cc1 (stereo not shown) [Example 350],,< 10 µM,> 100%
O=C(Nc1ncc(C(c2ccccc2)N2CCC(O)CC2)s1)C1(c2ccc3c(c2)OCO3)CC1 (stereo not shown) [Example 351],,10 to 25 µM,> 100%
COc1ccc(C(c2cnc(NC(=O)C3(c4ccc5c(c4)OCO5)CC3)s2)N2CC[C@@H](O)C2)cc1 (stereo partly shown) [Example 352],,10 to 25 µM,> 100%
COCC1CCCN1C(c1cccc(OC)c1)c1cnc(NC(=O)C2(c3ccc4c(c3)OCO4)CC2)s1 (stereo not shown) [Example 353],,< 10 µM,> 100%
COc1ccccc1C(c1cnc(NC(=O)C2(c3ccc4c(c3)OCO4)CC2)s1)N1CCCC1 (stereo not shown) [Example 354],,< 10 µM,> 100%
COCC1CCCN1C(c1ccccc1)c1cnc(NC(=O)C2(c3ccc4c(c3)OCO4)CC2)s1 (stereo not shown) [Example 355],,< 10 µM,> 100%
